The values below come from patent publication US9694084B2, “Methods to induce targeted protein degradation through bifunctional molecules” (Dana-Farber Cancer Institute, Inc., priority 2014, dated 2017).

SMILES strings stand for the structures.

Test [1] has as its system MV4-11 cells. Description: Apoptosis in MV4-11 cells (Caspase-GLO, PARP and Caspase-3 cleavage, Annexin V). Type of test: cell-based, human. The note with it: MV4-11, 4 or 8 hours then drug washout, assessed at 24 hours.
For test [2], the target named is recombinant, human CRBN-DDB1 and BRD4 (Homo sapiens, UniProt O60885+Q96SW2). In words: CRBN-DDB1/BRD4 dimerization (proximity) AlphaScreen assay. The test is classed as biochemical. The note with it: co-incubation with 111 nM dBET1, competitor 1 μM, stereo-specific.
Test [3] relates to PIM1. Description: Expression proteomics in MV4-11 cells. The following applies: 250 nM, 2 hours.
Test [4] deals with MV4-11 cell proliferation. In words: MV4-11 cell proliferation (ATP content). The test is classed as cell-based. The note with it: Homo sapiens, MV4-11, 24 h, read-out: IC50, MV4-11 cell proliferation (ATP content).

For `Cc1sc2c(c1C)C(c1ccc(Cl)cc1)=N[C@@H](CC(=O)OC(C)(C)C)c1nnc(C)n1-2` [JQ1], the “apoptotic response after pulsed treatment” value in test [1] is listed as “did not yield a pronounced apoptotic response”. For the same compound, the “competition of dBET1 induced proximity” value in test [2] was “Inhibition of chemical adaptor function was accomplished”. Also, in test [3], the PIM1 protein abundance result was “downregulated”. Besides, the IC50 in test [4] is 1.1 µM.
In the case of `O=C1CCC(N2C(=O)c3ccccc3C2=O)C(=O)N1` (centres unmarked) [thalidomide], the “competition of dBET1 induced proximity” value in test [2] is reported as “Inhibition of chemical adaptor function was accomplished”.
